Molecular target: Recombinant human liver glucokinase (Homo sapiens (Human), UniProt P35557)
Experiment: Glucokinase activation assay (G6PDH-coupled, Thio-NADH absorbance at 405 nm)
Format: biochemical
Details: for EC50: 2.5 mM Glu, 30° C.
Source text: The glucokinase activity can, for instance, be determined without directly measuring glucose-6-phosphate by measuring the amount of Thio-NADH generated during the production of phosphogluconolactone from glucose-6-phosphate by a reporter enzyme glucose-6-phosphate dehydrogenase.
To test the exemplified compounds, the following assay was employed. Recombinant human liver glucokinase was expressed as a FLAG fusion protein in E. coli, and purified on […] M2 AFFINITY GEL (Sigma). The assay was carried out at 30° C. in a 96-well plate. In the plate was distributed 69 μl each of assay buffer (25 mM Hepes Buffer: pH=7.2, 2 mM MgCl2, 1 mM ATP, 0.5 mM TNAD, 1 mM dithiothreitol), to which was added 1 μl of a DMSO solution of the compound or DMSO as control. Then, 20 μl of pre-ice-cooled enzyme mixture (FLAG-GK, 20 U/ml G6PDH) was distributed thereto, to which was added 10 μl of 25 mM glucose as substrate to initiate the reaction (final glucose concentration=2.5 mM). After starting the reaction, the absorbance at 405 nm was measured every 30 seconds for 10 minutes to evaluate the compound based on the initial increase for 5 minutes. FLAG-GK was added so that the increase of absorbance after 5 minutes fell between 0.05 to 0.1 in the presence of 1% DMSO.
The OD values of the respective compounds were measured in the respective concentrations, wherein the OD value of DMSO as control is regarded as 100%.

Recombinant human liver glucokinase, sequence (P35557 other isoform, or with tags, fused parts or gaps): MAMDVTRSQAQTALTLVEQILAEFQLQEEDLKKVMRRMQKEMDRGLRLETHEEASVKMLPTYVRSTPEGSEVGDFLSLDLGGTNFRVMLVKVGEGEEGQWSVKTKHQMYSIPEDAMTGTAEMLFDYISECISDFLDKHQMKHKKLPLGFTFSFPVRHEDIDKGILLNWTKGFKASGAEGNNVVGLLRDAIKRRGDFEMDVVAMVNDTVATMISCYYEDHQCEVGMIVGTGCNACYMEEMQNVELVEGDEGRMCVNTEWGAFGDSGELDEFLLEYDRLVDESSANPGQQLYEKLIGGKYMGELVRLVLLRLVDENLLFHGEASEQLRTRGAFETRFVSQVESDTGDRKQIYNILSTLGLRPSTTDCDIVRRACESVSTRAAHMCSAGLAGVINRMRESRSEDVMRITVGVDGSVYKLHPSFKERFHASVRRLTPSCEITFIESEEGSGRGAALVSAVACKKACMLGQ

SMILES | Emax | EC50
Cn1cnnc1Sc1ccc(Sc2ccc(F)cc2)c(C(=O)Nc2nc(CC(=O)O)c(Cl)s2)n1 [Example 25, {5-Chloro-2-[({3-[(4-fluorophenyl)sulfanyl]-6-[(4-methyl-4H-1,2,4-triazol-3-yl)sulfanyl]pyridin-2-yl}carbonyl)amino]-1,3-thiazol-4-yl}acetic acid] | 525% | 0.0186 µM
CCOP(=O)(Cc1cnc(NC(=O)c2nc(Sc3nncn3C)ccc2Sc2ccc(F)cc2)s1)OCC [Example 26, Diethyl ({2-[({3-[(4-fluorophenyl)sulfanyl]-6-[(4-methyl-4H-1,2,4-triazol-3-yl)sulfanyl]pyridin-2-yl}carbonyl)amino]-1,3-thiazol-5-yl}methyl)phosphonate] | 377% | 0.136 µM
CCOC(=O)CSc1cnc(NC(=O)c2nc(Sc3ccc(F)cc3)ccc2Sc2ccc(F)cc2)s1 [Example 27] | 182% | 
O=C(O)CSc1cnc(NC(=O)c2nc(Sc3ccc(F)cc3)ccc2Sc2ccc(F)cc2)s1 [Example 28, ({2-[({3,6-Bis[(4-fluorophenyl)sulfanyl]pyridin-2-yl}carbonyl)amino]-1,3-thiazol-5-yl}sulfanyl)acetic acid] | 343% | 0.172 µM
CCOC(=O)Cc1nc(NC(=O)c2nc(Sc3ccc(F)cc3)ccc2Sc2ccc(F)cc2)sc1Cl [Example 29, Ethyl {2-[({3,6-bis[(4-fluorophenyl)sulfanyl]pyridin-2-yl}carbonyl)amino]-5-chloro-1,3-thiazol-4-yl}acetate] | 158% | 
O=C(O)Cc1nc(NC(=O)c2nc(Sc3ccc(F)cc3)ccc2Sc2ccc(F)cc2)sc1Cl [Example 30, {2-[({3,6-Bis[(4-fluorophenyl)sulfanyl]pyridin-2-yl}carbonyl)amino]-5-chloro-1,3-thiazol-4-yl}acetic acid] | 393% | 0.0163 µM
CCOC(=O)Cc1nc(NC(=O)c2nc(Sc3ccccn3)ccc2Sc2ccc(F)cc2)sc1Cl [Example 31, Ethyl {5-chloro-2-[({3-[(4-fluorophenyl)sulfanyl]-6-(pyridin-2-ylsulfanyl)pyridin-2-yl}carbonyl)amino]-1,3-thiazol-4-yl}acetate] | 436% | 0.127 µM
O=C(O)Cc1nc(NC(=O)c2nc(Sc3ccccn3)ccc2Sc2ccc(F)cc2)sc1Cl [Example 32, {5-Chloro-2-[({3-[(4-fluorophenyl)sulfanyl]-6-(pyridin-2-ylsulfanyl)pyridin-2-yl}carbonyl)amino]-1,3-thiazol-4-yl}acetic acid] | 643% | 0.0161 µM
CCOC(=O)Cc1csc(NC(=O)c2nc(Sc3ccccn3)ccc2Sc2ccc(F)cc2)n1 [Example 33, Ethyl {2-[({3-[(4-fluorophenyl)sulfanyl]-6-(pyridin-2-ylsulfanyl)pyridin-2-yl}carbonyl)amino]-1,3-thiazol-4-yl}acetate] | 456% | 4.66 µM
O=C(O)Cc1csc(NC(=O)c2nc(Sc3ccccn3)ccc2Sc2ccc(F)cc2)n1 [Example 34, {2-[({3-[(4-Fluorophenyl)sulfanyl]-6-(pyridin-2-ylsulfanyl)pyridin-2-yl}carbonyl)amino]-1,3-thiazol-4-yl}acetic acid] | 762% | 0.413 µM
CCOC(=O)CSc1cnc(NC(=O)c2nc(Sc3ccccn3)ccc2Sc2ccc(F)cc2)s1 [Example 35, Ethyl ({2-[({3-[(4-fluorophenyl)sulfanyl]-6-(pyridin-2-ylsulfanyl)pyridin-2-yl}carbonyl)amino]-1,3-thiazol-5-yl}sulfanyl)acetate] | 504% | 0.0838 µM
O=C(O)CSc1cnc(NC(=O)c2nc(Sc3ccccn3)ccc2Sc2ccc(F)cc2)s1 [Example 36, ({2-[({3-[(4-Fluorophenyl)sulfanyl]-6-(pyridin-2-ylsulfanyl)pyridin-2-yl}carbonyl)amino]-1,3-thiazol-5-yl}sulfanyl)acetic acid] | 514% | 0.034 µM
CCOC(=O)C(C)(C)CSc1cnc(NC(=O)c2nc(Sc3ccccn3)ccc2Sc2ccc(F)cc2)s1 [Example 37, Ethyl 3-({2-[({3-[(4-fluorophenyl)sulfanyl]-6-(pyridin-2-ylsulfanyl)pyridin-2-yl}carbonyl)amino]-1,3-thiazol-5-yl}sulfanyl)-2,2-dimethylpropanoate] | 450% | 0.129 µM
CC(C)(CSc1cnc(NC(=O)c2nc(Sc3ccccn3)ccc2Sc2ccc(F)cc2)s1)C(=O)O [Example 38, 3-({2-[({3-[(4-Fluorophenyl)sulfanyl]-6-(pyridin-2-ylsulfanyl)pyridin-2-yl}carbonyl)amino]-1,3-thiazol-5-yl}sulfanyl)-2,2-dimethylpropanoic acid] | 550% | 0.032 µM
COC(=O)CCc1cnc(NC(=O)c2nc(Sc3ccccn3)ccc2Sc2ccc(F)cc2)s1 [Example 39, Methyl 3-{2-[({3-[(4-fluorophenyl)sulfanyl]-6-(pyridin-2-ylsulfanyl)pyridin-2-yl}carbonyl)amino]-1,3-thiazol-5-yl}propanoate] | 468% | 0.727 µM
O=C(O)CCc1cnc(NC(=O)c2nc(Sc3ccccn3)ccc2Sc2ccc(F)cc2)s1 [Example 40, 3-{2[({3-[(4-Fluorophenyl)sulfanyl]-6-(pyridin-2-ylsulfanyl)pyridin-2-yl}carbonyl)amino]-1,3-thiazol-5-yl}propanoic acid] | 658% | 0.428 µM
CCOC(=O)Cc1nc(NC(=O)c2nc(Sc3nncn3C)ccc2Sc2ccc(C(F)(F)F)cc2)sc1Cl [Example 41, Ethyl (5-chloro-2-{[(6-[(4-methyl-4H-1,2,4-triazol-3-yl)sulfanyl]-3-{[4-(trifluoromethyl)phenyl]sulfanyl}pyridin-2-yl)carbonyl]amino}-1,3-thiazol-4-yl)acetate] | 296% | 0.0189 µM
Cn1cnnc1Sc1ccc(Sc2ccc(C(F)(F)F)cc2)c(C(=O)Nc2nc(CC(=O)O)c(Cl)s2)n1 [Example 42, (5-Chloro-2-{[(6-[(4-methyl-4H-1,2,4-triazol-3-yl)sulfanyl]-3-{[4-(trifluoromethyl)phenyl]sulfanyl}pyridin-2-yl)carbonyl]amino}-1,3-thiazol-4-yl)acetic acid] | 466% | 0.044 µM
CCOC(=O)CSc1cnc(NC(=O)c2nc(Sc3nncn3C)ccc2Sc2ccc(C(F)(F)F)cc2)s1 [Example 43, Ethyl [(2-{[(6-[(4-methyl-4H-1,2,4-triazol-3-yl)sulfanyl]-3-{[4-(trifluoromethyl)phenyl]sulfanyl}pyridin-2-yl)carbonyl]amino}-1,3-thiazol-5-yl)sulfanyl]acetate] | 384% | 0.0283 µM
Cn1cnnc1Sc1ccc(Sc2ccc(C(F)(F)F)cc2)c(C(=O)Nc2ncc(SCC(=O)O)s2)n1 [Example 44, [(2-{[(6-[(4-Methyl-4H-1,2,4-triazol-3-yl)sulfanyl]-3-{[4-(trifluoromethyl)phenyl]sulfanyl}pyridin-2-yl)carbonyl]amino}-1,3-thiazol-5-yl)sulfanyl]acetic acid] | 349% | 0.0337 µM
CCOP(=O)(Cc1cnc(NC(=O)c2nc(Sc3nncn3C)ccc2Sc2ccc(C(F)(F)F)cc2)s1)OCC [Example 45, Diethyl [(2-{[(6-[(4-methyl-4H-1,2,4-triazol-3-yl)sulfanyl]-3-{[4-(trifluoromethyl)phenyl]sulfanyl}pyridin-2-yl)carbonyl]amino}-1,3-thiazol-5-yl)methyl]phosphonate] | 273% | 0.35 µM
CCOC(=O)Cc1csc(NC(=O)c2nc(Sc3nncn3C)ccc2Sc2ccc(C(F)(F)F)cc2)n1 [Example 46, Ethyl (2-{[(6-[(4-methyl-4H-1,2,4-triazol-3-yl)sulfanyl]-3-{[4-(trifluoromethyl)phenyl]sulfanyl}pyridin-2-yl)carbonyl]amino}-1,3-thiazol-4-yl)acetate] | 466% | 0.0663 µM
Cn1cnnc1Sc1ccc(Sc2ccc(C(F)(F)F)cc2)c(C(=O)Nc2nc(CC(=O)O)cs2)n1 [Example 47, (2-{[(6-[(4-Methyl-4H-1,2,4-triazol-3-yl)sulfanyl]-3-{[4-(trifluoromethyl)phenyl]sulfanyl}pyridin-2-yl)carbonyl]amino}-1,3-thiazol-4-yl)acetic acid] | 633% | 0.222 µM
COC(=O)CCc1cnc(NC(=O)c2nc(Sc3nncn3C)ccc2Sc2ccc(C(F)(F)F)cc2)s1 [Example 48, Methyl 3-(2-{[(6-[(4-methyl-4H-1,2,4-triazol-3-yl)sulfanyl]-3-{[4-(trifluoromethyl)phenyl]sulfanyl}pyridin-2-yl)carbonyl]amino}-1,3-thiazol-5-yl)propanoate] | 428% | 0.0718 µM
Cn1cnnc1Sc1ccc(Sc2ccc(C(F)(F)F)cc2)c(C(=O)Nc2ncc(CCC(=O)O)s2)n1 [Example 49, 3-(2-{[(6-[(4-Methyl-4H-1,2,4-triazol-3-yl)sulfanyl]-3-{[4-(trifluoromethyl)phenyl]sulfanyl}pyridin-2-yl)carbonyl]amino}-1,3-thiazol-5-yl)propanoic acid] | 549% | 0.173 µM
CCOP(=O)(Cc1cnc(NC(=O)c2nc(Sc3nncn3C)ccc2Sc2ccc(Cl)c(Cl)c2)s1)OCC [Example 50] | 379% | 0.0571 µM

From patent publication US9527838B2, “2-pyridinecarboxamide derivatives, compositions containing such compounds, and methods of treatment” (priority 2012, dated 2016)
